Test results published in patent US12325708B2, “Adenosine 2 receptor antagonists” (Nektar Therapeutics, priority 2019, dated 2025).
pKi: −log10 of the molar value. In brackets after ≈: the same amount, converted by molar mass.

How the values were obtained:
[1] = Plasma pharmacokinetic parameters of Compound 1 in mice; type: in vivo; conditions: mouse, PO 30 mg/kg
Source text: (§1) Pharmacokinetic parameters were further estimated in vivo after IV or PO administration of Compound 1 in mice and dogs with the results provided in Table 4 below.

[2] = Plasma pharmacokinetic parameters of Compound 1 in dogs; type: in vivo; conditions: dog
Source text: as §1

[3] = Permeability Caco-2 Papp and efflux ratio; type: in vitro ADME; conditions: human
Solubility = type: physicochemical
[4] = Hepatic clearance in vitro CLint, mouse liver microsomes; type: in vitro ADME
[5] = Hepatic clearance in vitro CLint, rat liver microsomes; type: in vitro ADME
[6] = Hepatic clearance in vitro CLint, dog liver microsomes; type: in vitro ADME
[7] = Hepatic clearance in vitro CLint, human liver microsomes; type: in vitro ADME
[8] = Plasma protein binding (PPB), mouse; type: in vitro ADME; conditions: read-out: Plasma protein binding (PPB) (fu)
[9] = Plasma protein binding (PPB), rat; type: in vitro ADME; conditions: read-out: Plasma protein binding (PPB) (fu)
[10] = Plasma protein binding (PPB), dog; type: in vitro ADME; conditions: read-out: Plasma protein binding (PPB) (fu)
[11] = Plasma protein binding (PPB), human; type: in vitro ADME; conditions: read-out: Plasma protein binding (PPB) (fu)
A1 receptor = target: T1, A1 receptor (Homo sapiens, UniProt P30542); assay: Radioligand receptor binding assay, A1 receptor; conditions: cell membranes overexpressing A1 receptor, read-out: Potency Ki A1
T1 construct: purchased
T1 sequence (P30542 1-326): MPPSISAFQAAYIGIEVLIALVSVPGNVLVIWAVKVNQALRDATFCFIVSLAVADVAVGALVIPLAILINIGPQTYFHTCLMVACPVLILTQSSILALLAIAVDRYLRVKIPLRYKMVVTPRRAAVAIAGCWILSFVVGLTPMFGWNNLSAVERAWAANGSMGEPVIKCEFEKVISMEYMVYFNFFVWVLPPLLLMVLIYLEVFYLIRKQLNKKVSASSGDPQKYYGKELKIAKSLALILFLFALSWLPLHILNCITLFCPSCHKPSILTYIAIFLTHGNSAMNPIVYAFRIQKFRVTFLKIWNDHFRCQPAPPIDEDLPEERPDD
Summary of the method: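 Membranes from cell lines overexpressing human A2A, A1 or A3 receptors were incubated 60 min at room temperature with the receptor-appropriate [3H] tracer. After filtration and washing in 50 mM Tris HCl pH 7.5, bound label was counted by scintillation. IC50 came from nonlinear regression and Ki from the Cheng-Prusoff equation.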

A3 receptor = target: T2, A3 receptor (Homo sapiens, UniProt P0DMS8); assay: Radioligand receptor binding assay, A3 receptor; conditions: cell membranes overexpressing A3 receptor, read-out: Potency Ki A3
T2 construct: purchased
T2 sequence (P0DMS8 1-318): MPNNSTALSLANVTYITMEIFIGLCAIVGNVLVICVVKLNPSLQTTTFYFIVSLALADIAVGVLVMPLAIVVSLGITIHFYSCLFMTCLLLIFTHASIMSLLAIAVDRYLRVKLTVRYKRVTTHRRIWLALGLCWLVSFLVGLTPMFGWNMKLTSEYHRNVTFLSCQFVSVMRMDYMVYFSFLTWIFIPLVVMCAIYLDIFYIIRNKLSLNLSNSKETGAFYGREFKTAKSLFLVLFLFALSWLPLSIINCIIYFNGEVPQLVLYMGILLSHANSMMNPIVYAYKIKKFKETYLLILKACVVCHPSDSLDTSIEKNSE
Experimental: Using conventional receptor binding assay techniques, Compounds 1-24 were assayed to determine binding activity at the A2A, A1, and A3 receptors with the results shown in Table 7.
Receptor binding affinity of Compounds 1-24 was measured using radioligand binding assays using commercially obtained cell membranes prepared from cell lines overexpressing the A2A, A1, or A3 receptors. Briefly, cell membrane preparations from cells expressing the specific receptor were mixed with the appropriate [^3H]-labeled tracer for the specific receptor and the test compound or a known inhibitor of receptor-ligand binding. Following 60 min incubation at room temperature to allow receptor-ligand complex formation, the complexes were collected by filtration, washed with 50 mM Tris HCl (pH 7.5) to remove radioligand that was not receptor-bound, and the remaining radioactivity determined by liquid scintillation counting. Specific radioligand binding was calculated for each test compound concentration and IC50 values were determined by non-linear, regression analysis. Inhibition constants (Ki) were calculated using the equation of Cheng and Prusoff using the observed IC50 of the tested compound, the concentration of radioligand employed in the assay and the experimentally determined values for the Kd of the ligand.

mouse CT-26 cells = assay: Antitumor activity in CT26 subcutaneous tumor model in Balb/c mice; type: in vivo; conditions: day 13 vs vehicle
Experimental: Mice used were ˜ 6-8 week-old female Balb/c mice subcutaneously inoculated with 2×10^6 mouse CT-26 cells. […] The mice were divided into six treatment groups as follows: vehicle (qdx9) PO+IP, Compound 1 (10 mg/kg, qdx9)+an exemplary anti-mouse PD1 (CD279) antibody (BioXCell) (200 μg/mouse, q2dx4); Compound 1 (30 mg/kg, qdx9)+anti-PD1 antibody (200 μg/mouse, q2dx4), Compound 1 (100 mg/kg)+anti-PD1 antibody (200 μg/mouse, q2dx4), anti-PD1 antibody (200 μg/mouse, q2dx4), or preladenant (30 mg/kg, qdx9)+anti-PD1 antibody (200 μg/mouse, q2dx4). Compound 1 and preladenant were administered orally. The anti-PD1 antibody was administered IP. Body weight was measured daily. Tumor growth of the CT26 cells was monitored three times per week by measuring the tumor volume size using a caliper with the results shown in FIG. 5.

SMILES: COCCOc1ccc(N2CCN(CCN(C)c3cc4nc(-c5ncco5)nn4c(N)n3)CC2)cc1 [Compound 1, N^7-(2-{4-[4-(2-methoxyethoxy)phenyl]piperazin-1-yl}ethyl)-N^7-methyl-2-(1,3-oxazol-2-yl)[1,2,4]triazolo[1,5-c]pyrimidine-5,7-diamine]
- AUC(0-inf) [1]: 5760 ng·h/mL
- F ([2]; PO 1&10 mg/kg vs IV 0.2 mg/kg): >100%
- clearance ([2]; plasma, IV 0.2 mg/kg): 12 mL/min/kg
- half-life ([2]; plasma, IV 0.2 mg/kg): 6 h
- Vd ([2]; plasma, IV 0.2 mg/kg, read-out: Vss): 5.2 L/kg
- AUC(0-inf) ([2]; plasma, PO 1 mg/kg): 2020 ng·h/mL
- AUC(0-inf) ([2]; plasma, PO 10 mg/kg): 17900 ng·h/mL
- Papp [3]: 14.5 ×10⁻⁶ cm/s
- efflux ratio ([3]; read-out: Efflux Ratio (ER)): 1.6
- solubility (Solubility; pH ~3): ~5000 µM (≈ 2470 µg/mL)
- solubility (Solubility; pH ~7): 20 to 40 µM (≈ 9.87 to 19.7 µg/mL)
- microsomal CLint [4]: 29 µL/min/mg
- microsomal CLint [5]: 17 µL/min/mg
- microsomal CLint [6]: < 1 µL/min/mg
- microsomal CLint [7]: 43 µL/min/mg
- fraction unbound [8]: 0.19
- fraction unbound [9]: 0.15
- fraction unbound [10]: 0.43
- fraction unbound [11]: 0.39
- pKi (A1 receptor): 4.30
- pKi (A3 receptor): < 5.00
- % TGI (mouse CT-26 cells; 10 mg/kg qdx9 PO + anti-PD1 antibody 200 μg/mouse q2dx4 IP): 34%
- % TGI (mouse CT-26 cells; 30 mg/kg qdx9 PO + anti-PD1 antibody 200 μg/mouse q2dx4 IP): 41^1%
- % TGI (mouse CT-26 cells; 100 mg/kg PO + anti-PD1 antibody 200 μg/mouse q2dx4 IP): 47^2%

SMILES: COCCOc1cnc(N2CCN(CCN(C)c3cc4nc(-c5ncco5)nn4c(N)n3)CC2)c(F)c1 [Compound 4, N^7-(2-{4-[3-fluoro-5-(2-methoxyethoxy)pyridin-2-yl]piperazin-1-yl}ethyl)-N^7-methyl-2-(1,3-oxazol-2-yl)[1,2,4]triazolo[1,5-c]pyrimidine-5,7-diamine]
- pKi (A1 receptor): 4.85
